# Measured values published in patent US20230277508A1, “USE OF COMPOUND AS CYP2E1 INHIBITOR” (SHANGHAI LING XI BIOTECHNOLOGY DEVELOPMENT CO., LTD., priority 2020, published 2023).
# Marks after values point to notes of the source that are not given here.
# Experiments:
# [1] = molecular target: T1, human liver microsome CYP2E1 (Homo sapiens, UniProt P05181); test: Determination of IC50 for a CYP2E1 inhibitory effect (CZX probe, mixed liver microsome); format: biochemical; details: mixed liver microsome of healthy individuals 0.3 mg/mL, 62.5 μM CZX, 1 mM NADPH, 30 min; read-out: IC50 for 2E1 inhibition
# T1 construct: metabolic activity of a mixed liver microsome CYP2E1 of a healthy individual; from tissue; host or cells: mixed (pooled) human liver microsomes of healthy individuals
# Experimental: CZX was used as a probe substrate to detect an inhibitory effect of an inhibitor to be tested on the metabolic activity of a mixed liver microsome CYP2E1 of a healthy individual (IC50: half inhibition concentration; Ki: inhibition constant; the smaller the IC50 and the smaller the Ki, the higher the inhibition intensity of the inhibitor), thereby determining an inhibitory effect of the inhibitor to be tested on the human liver microsome CYP2E1.
# An incubation system in a total volume of 100 μL was adopted, including a substrate, an inhibitor of different concentrations, a liver microsomal protein, and phosphate-buffered saline (PBS). The incubation system was pre-incubated in a 37° C. water bath for 5 min, reduced coenzyme was added to allow a reaction for 30 min, and then the reaction was terminated in an ice bath. In a specific experiment, a concentration of an inhibitor can be selected as required.
# In this example, the incubation system includes 62.5 μM CZX, 100 mM (pH=7.4) PBS, 0.3 mg/mL liver microsomal protein, and 1 mM NADPH.
# In this example, the reaction is terminated with 1 mL of ethyl acetate. In other preferred examples, the reaction may also be terminated with 1 mL of methyl tert-butyl ether (MTBE), 1 mL of diethyl ether, or 100 μL of methanol.
# [2] = tested on: hyperlipidemia and aortic atherosclerotic plaques in ApoE-/- mice; test: ApoE-/- mouse hyperlipidemia model induced by a high-fat diet; format: in vivo; details: for High-density lipoprotein / Low-density lipoprotein / Total cholesterol / Triglyceride: serum, 16 weeks, n=8
# Experimental: Experimental method: ApoE^−/− mice were fed with a high-fat and high-cholesterol feed to construct an ApoE^−/− mouse hyperlipidemia model. An SMI0 intervention group was divided into a low-dose intervention group and a high-dose intervention group, which were administered with the compound SMI0 at 30 mg/kg and 150 mg/kg every day from the beginning of modeling to the end of the 16-week modeling. At the end of the experiment, blood was collected from the orbit, and the levels of blood lipid-associated indexes in the serum of each mouse were determined by an automatic biochemical analyzer (8 mice in each group).
# [3] = tested on: LPS-induced acute lung injury (ALI) in mice; test: LPS-induced mouse lung injury; format: in vivo, C57BL/6N mouse
# Experimental: Experimental method: A C57BL/6N mouse pulmonary fibrosis model was established through intratracheal instillation with 8 mg/kg LPS. An SMI0 intervention group was divided into a low-dose group and a high-dose group, which were intragastrically administered with the compound SMI0 respectively at 30 mg/kg and 90 mg/kg every day from three days before modeling until 6 h before the end of the modeling (control group, n=8; model group, n=8; and SMI0 compound high-dose group, n=8). At the end of the experiment, a body weight of mice in each group was recorded, blood was collected from the orbit, the mice were sacrificed, and lung tissues were collected and weighed. The left lungs were fixed in 4% formalin and subjected to HE staining.
# Experimental method: A neutrophil level in a mouse lung tissue was evaluated through immunohistochemistry (IHC) staining, and an immunostaining-positive area percentage was quantitatively evaluated by Image-Pro Plus software. RNA of a mouse lung tissue was extracted by a kit method, and expression levels of TNF-α and IL-1β in lung tissues of mice were determined by RT-PCR.
# [4] = tested on: liver cancer cell line H22 in situ transplanted tumor; test: Mouse liver cancer model, in situ implantation of H22 cells into liver; format: in vivo, BALB/c mouse; details: for liver H22 tumor incidence: 24 days, model group 100%
# Experimental: Experimental method: A male BALB/c mouse liver transplanted tumor model was constructed through in situ implantation of a liver cancer cell line H22 into the liver, with a cell concentration of 1.5*10^5. An SMI0 intervention group was divided into a low-dose group, a medium-dose group, and a high-dose group, which were intragastrically administered with the compound SMI0 respectively at 3.3 mg/kg, 10 mg/kg, and 30 mg/kg every day from two days before modeling to the end of the 24-day modeling (model group, n=19 mice; SMI0 compound low-dose group, n=19 mice; SMI0 compound medium-dose group, n=18 mice; and SMI0 compound high-dose group, n=29 mice). At the end of the experiment, blood was collected from the orbit, a body weight was measured, and then the mice each were sacrificed. The weight and appearance of a liver (color and texture of the liver) were recorded. Some liver specimens were subjected to HE staining, and then the liver lesion and tumorigenesis of mice in each group were observed.
# Experimental method: The levels of oxidative stress indexes MDA and T-AOC in the mouse paracancerous liver tissue were determined by a kit method; the expression of the chemokine CXCL-12 in the mouse paracancerous liver tissue was detected by RT-PCR; the expression of proinflammatory cytokines (TNF-α, IL-6, and IL-1β) and inflammation-associated signaling pathway proteins (ARRB1, Src, ITGAV, p-STAT3/STAT3, p-ERK/ERK, and p-P38MAPK/P38MAPK) in the mouse paracancerous liver tissue was detected by a WB method; and the expression of apoptosis-associated proteins and signaling pathways casPase3, cleaved casPase3, p-ERK/ERK, and p-p38MAPK/p38MAPK in the tumor tissue was detected by a WB method.
# [5] = RT-PCR, SMI0 high-dose group vs model group, P<0.05
# [6] = WB, SMI0 30 mg/kg vs model group
# T1 sequence (P05181 whole entry): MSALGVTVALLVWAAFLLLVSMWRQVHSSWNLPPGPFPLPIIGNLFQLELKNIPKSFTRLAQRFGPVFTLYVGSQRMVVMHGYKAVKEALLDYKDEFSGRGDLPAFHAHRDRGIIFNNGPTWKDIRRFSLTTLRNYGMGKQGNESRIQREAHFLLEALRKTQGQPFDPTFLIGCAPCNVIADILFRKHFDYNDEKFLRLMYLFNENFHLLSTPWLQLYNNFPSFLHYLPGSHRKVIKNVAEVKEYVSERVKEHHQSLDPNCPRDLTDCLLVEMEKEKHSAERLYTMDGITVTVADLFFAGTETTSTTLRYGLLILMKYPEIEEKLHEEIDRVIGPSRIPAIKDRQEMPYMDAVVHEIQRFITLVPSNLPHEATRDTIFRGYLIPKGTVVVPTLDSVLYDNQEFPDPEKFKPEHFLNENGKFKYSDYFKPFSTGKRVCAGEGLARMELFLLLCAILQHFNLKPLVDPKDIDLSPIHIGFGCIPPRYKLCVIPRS
structure (smiles),measurement,setting,value
CC(=O)c1scnc1C [SMI0],IC50,[1],1.64 µM
same,total area of aortic root lesions (HE staining),"[2]; SMI0 high-dose group 150 mg/kg vs model group, P<0.01",significantly reduced
same,total area of aortic root lesions (oil red O staining),"[2]; SMI0 high-dose group 150 mg/kg vs model group, P<0.05",significantly reduced
same,High-density lipoprotein,[2]; SMI0 30 mg/kg daily,2.37 ± 0.49 mmol/L
same,Low-density lipoprotein,[2]; SMI0 30 mg/kg daily,17.94 ± 11.16 mmol/L
same,Total cholesterol,[2]; SMI0 30 mg/kg daily,20.45 ± 10.77 mmol/L
same,Triglyceride,[2]; SMI0 30 mg/kg daily,0.56 ± 0.04 mmol/L
same,High-density lipoprotein,[2]; SMI0 150 mg/kg daily,3.68 ± 0.33*^@ mmol/L
same,Low-density lipoprotein,[2]; SMI0 150 mg/kg daily,1.50 ± 0.77^@ mmol/L
same,Total cholesterol,[2]; SMI0 150 mg/kg daily,5.35 ± 0.55^@ mmol/L
same,Triglyceride,[2]; SMI0 150 mg/kg daily,0.40 ± 0.10 mmol/L
same,expression level of IL-1β in the lung tissue,[3]; [5],significantly reduced
same,expression level of TNF-α in the lung tissue,[3]; [5],significantly reduced
same,lung injury score,[3]; SMI0 administration group vs model group,significant reduced
same,MPO immunostaining-positive area percentage in lung tissue,"[3]; SMI0 high-dose group vs model group, P<0.05",significantly reduced
same,lung index,"[3]; both SMI0 low-dose (30 mg/kg) and high-dose (90 mg/kg) groups, ig daily, vs model group, P<0.01",significantly reduced
same,liver H22 tumor incidence,[4]; SMI0 high-dose 30 mg/kg ig daily,68.4%
same,total oxidation resistance index T-AOC in paratumoral liver tissue,"[4]; SMI0 intervention group vs model group, P<0.01",significantly increased
same,"expression of other proteins (MDA, CXCL-12, TNF-α, IL-6, IL-1β, ARRB1, Src, ITGAV, p-STAT3/STAT3, p-ERK/ERK, p-p38MAPK/p38MAPK) in paratumoral liver tissue","[4]; SMI0 intervention group vs model group, P<0.05 or P<0.01",significantly reduced
same,liver H22 tumor incidence,[4]; SMI0 low-dose 3.3 mg/kg ig daily,78.9%
same,liver H22 tumor incidence,[4]; SMI0 medium-dose 10 mg/kg ig daily,72.2%
same,expression of p-ERK/ERK in the tumor tissue,[4]; [6],significantly down-regulated
same,expression of p-p38MAPK/p38MAPK in the tumor tissue,[4]; [6],significantly down-regulated
same,expression of cleaved caspase3/caspase3 in the tumor tissue,"[4]; WB, SMI0 30 mg/kg vs model group, P<0.01",significantly up-regulated
same,tumor proliferation inhibition rate,"[4]; as high as, SMI0 intervention group (3.3, 10, 30 mg/kg), cumulative liver tumor weight",71.8%
